Assay results published in patent publication US20190322632A1, “HRI ACTIVATORS USEFUL FOR THE TREATMENT OF CARDIOMETABOLIC DISEASES” (UNIVERSITAT DE BARCELONA, priority 2016, published 2019).

Columns and labels:
FGF21 = FGF21 expression in hepatocytes (quantitative real-time RT-PCR); format: cell-based, human; conditions: Huh-7 hepatocytes, 24 h, 10 μM; FIG. 9
Protocol: Human Huh-7 hepatocytes were incubated for 24 h in the absence (Control, CT) or in the presence of compounds (10 μM). Assessment by quantitative real-time RT-PCR of FGF21. Data are presented as the mean±SD (n=4 per group). ***p<0.001 and **p<0.01 vs CT. ^###p<0.001, ^##p<0.01 and ^#p<0.05 vs BTCtFPU. ^††p<0.01 and ^†p<0.05 vs BTdCPU. BTCtFPU=1-(benzo[d][1,2,3]thiadiazol-6-yl)-3-(4-chloro-3-(trifluoromethyl)phenyl)urea (compound (3) in Chen T. et al., ibid.).

mice fed a HFD = assay: HFD-induced steatosis in mice (ORO and H&E liver staining, hepatic triglyceride levels); format: in vivo; conditions: HFD three weeks, 70 mg kg^−1 day^−1 i.p. daily for the last week
Excerpt: FIG. 8. (A) Oil Red O and eosin-hematoxylin (H&E) staining of livers of mice fed a standard chow (CT), a HFD for three weeks (HFD) or a HFD for three weeks plus BTdCPU during the last week (HFD+BTdCPU). (B) Liver triglyceride levels. Data are presented as the mean±SD (n=6 per group). *p<0.05 vs. mice fed a standard diet (CT). ^#p<0.05 vs. mice fed a HFD. G: glucose. TG: triglyceride.
Inventors examined whether the treatment with an HRI activator (BTdCPU) prevented the development of steatosis induced by a HFD. Histological analysis of a liver biopsy remains the gold standard for assessing the degree of steatosis. ORO staining and eosin-hematoxylin (H&E) staining of liver sections were performed. Mice fed a standard chow and half of the mice fed the HFD received one daily i.p. administration of DMSO (vehicle) for the last week. The rest of the mice fed the HFD received one daily i.p. administration of BTdCPU (70 mg kg^−1 day^−1) for the last week. […] Finally, hepatic lipids were extracted and hepatic triglyceride levels were assessed by using a commercially available kit (TR0100, Sigma). […] Overall, these findings indicate that HRI activation prevents HFD-induced steatosis.

[1] = test system: mice fed a high-fat diet (HFD); assay: Glucose tolerance test in mice fed a high-fat diet; format: in vivo; conditions: HFD three weeks, 70 mg kg^−1 day^−1 i.p. daily for the last week, FIG. 7
Excerpt: Data are presented as the mean±SD (n=6 per group). *p<0.05 vs. mice fed a standard diet (CT). #p<0.05 vs. mice fed a HFD. G: glucose.
T2DM is characterized by glucose intolerance, which is contributed to by peripheral (muscle, fat, and liver) insulin resistance as well as islet […] dysfunction (cf. Andrikopoulos S. et al., “Evaluating the glucose tolerance test in mice”, Am. J. Physiol. Endocrinol. Metab., 2008, vol. 295, pp. E1323-32). The glucose tolerance test (GTT) is used in clinical practice and research to identify individuals with impaired glucose tolerance by assessing the disposal of a glucose load. It is important to acknowledge that the GTT is the only means of identifying impaired glucose tolerance, which is considered a prediabetic state (cf. Andrikopoulos S. et al., ibid). The standard presentation of results from GTTs is a description of blood glucose levels over time after the glucose administration. Generally, a time course of absolute glucose levels is presented. When using diabetic or insulin-resistant models (such as the HFD-fed mouse), a time course of absolute glucose levels should still be presented along with a calculation of the AUC above baseline glucose. In this assay, the effect of the BTdCPU compound on glucose tolerance in mice fed a high-fat diet (HFD) was examined. […]

Akt = assay: Insulin signalling in hepatocytes (insulin-stimulated Akt phosphorylation, immunoblot); format: cell-based, human; conditions: Huh-7 cells, 24 h, 0.75 mmol/L palmitate plus 10 μmol/L compound, 100 nmol/L insulin last 10 min; FIG. 6
Protocol: (B). When indicated (+), cells were incubated with 100 nmol/L insulin (I) for the last 10 min. Data are presented as the mean±SD (n=4 per group). ***p<0.001 and *p<0.05 vs. control cells not exposed to insulin. ^###p<0.001 and ^##p<0.01 vs. insulin-stimulated control cells. ^554 \\p<0.001 vs. insulin-stimulated cells incubated with palmitate. Ins: insulin.
Inventors examined the insulin signalling pathway by measuring insulin-stimulated Akt phosphorylation. Huh-7 cells were incubated for 24 h with BSA (Control, CT), 0.75 mmol/L palmitate (Pal) conjugated with BSA, or 0.75 mmol/L palmitate plus 10 μmol/L BTdCPU (Pal+BTdCPU). Immunoblot analyses of total and phosphorylated Akt was carried out.

human Huh-7 hepatocytes = assay: Palmitate-induced triglyceride accumulation in hepatocytes (Oil Red O staining); format: cell-based; conditions: Huh-7 cells, 24 h, 0.75 mmol/L palmitate plus 10 μmol/L compound; FIG. 5
Protocol: To examine the effects of HRI activators on triglyceride accumulation and insulin signaling in hepatocytes, the N,N′-diarylurea BTdCPU was used. HRI is a kinase that phosphorylates eIF2α at its Ser 51 residue to execute protein synthesis regulation and thereby HRI activators cause the phosphorylation of eIF2α as previously described (Chen T. et al., ibid). First, the effect of BTdCPU on human Huh-7 hepatocytes exposed to the saturated fatty acid palmitate was explored. Huh-7 cells were incubated for 24 h with BSA (Control, CT), 0.75 mmol/L palmitate (Pal) conjugated with BSA or 0.75 mmol/L palmitate plus 10 μmol/L BTdCPU (Pal+BTdCPU). Then, they were stained with Oil Red O that allows selective detection of neutral lipids (primarily triglyceride and cholesterol esters) within Huh-7 cells.

In the case of `O=C(Nc1ccc(Cl)c(Cl)c1)Nc1ccc2nnsc2c1` [BTdCPU, 1-(benzo[d][1,2,3]thiadiazol-6-yl)-3-(3,4-dichlorophenyl)urea], the “FGF21 expression compared with BTCtFPU” value (FGF21) is reported as “significant higher increase than compound BTCtFPU”, the “hepatic steatosis (ORO and H&E staining)” value (mice fed a HFD; FIG. 8A) is reported as “hepatic steatosis was reversed” and the hepatic triglyceride levels (mice fed a HFD; FIG. 8B) is reported as “increase was completely blunted”. The “glucose tolerance test AUC above baseline glucose” value [1] was “prevented the increase in the AUC above baseline glucose”, the “insulin-stimulated Akt phosphorylation” value (Akt) was “partially restored the reduction in insulin-stimulated Akt phosphorylation caused by palmitate” and the “palmitate-induced triglyceride accumulation (Oil Red O staining)” value (human Huh-7 hepatocytes) was “accumulation was prevented”.
